Measured values reported in patent publication EP4635958A1, “PYRIMIDINE-CONTAINING POLYCYCLIC DERIVATIVE INHIBITOR, AND PREPARATION METHOD THEREFOR AND USE THEREOF” (Shanghai Hansoh Biomedical Co., Ltd., priority 2022, dated 2024).
Where two headings read alike, the source gives them in different places.

Experiments:
GP2D = assay: Inhibition of proliferation of KRAS G12D mutant tumor cell line GP2D (CellTiter-Glo); settings: read-out: GP2D IC50
[1] = Pharmacokinetic determination in rats (IV and PO, plasma, LCMS/MS); format: in vivo, SD rats; settings: male SD rats; for AUC(0-inf): read-out: AUCo-∞; for half-life: read-out: T1/2 (converted)
Experimental: SD rats were used as test animals to study the pharmacokinetic behavior of the example compounds in rats (plasma) after oral administration.
The example compounds of the present invention, made in house.
3 SD rats per group, male. Shanghai Jiesijie Experimental Animal Co., Ltd., animal production license number (SCXK (Shanghai) 2013-0006 N0.311620400001794).
Formulation of a drug for oral administration: 10% Captisol in 50 mM citrate buffer pH 5.0.
(§1) Formulation of 50 mM citric acid: 4.8 g of citric acid was weighed into a 1000 ml glass bottle, ultrapure water was added to 300 ml, and the mixture was magnetically stirred until completely dissolved, additional ultrapure water was then added to 500 ml to formulate 50 mM citric acid.
(§2) Formulation of a solution containing 50 mM citric acid (10% Captisol, PH = 5): 50 g of Captisol powder was weighed and added to a 1000 ml glass bottle, 300 ml of 50 mM citric acid was added, and the mixture was magnetically stirred until completely dissolved, then additional citric acid was added to 500 ml, and the PH was adjusted to 5 using 10 M NaOH.
The example compounds were weighed and dissolved in the solution and the mixture was shaken well and subjected to ultrasound treatment for 15 min to obtain a colorless clear solution with a concentration of 3 mg/mL.
(§3) Formulation of a drug for intravenous administration: 5%DMSO+10%Solutol HS15+85%PBS.
(§4) The example compounds were weighed, and 5% DMSO was added according to the total administration volume; the mixture was vortexed and sonicated for 2 min to ensure complete dissolution; then, 10% Solutol HS15 was added, and the mixture was vortexed and sonicated for 2 min to achieve complete dissolution; finally, 85% PBS was added, and the mixture was vortexed and sonicated for 5 min; the obtained mixture was filtered through a 0.22 um membrane to obtain a colorless, transparent, and clear solution with a concentration of 0.2 mg/mL.
3 SD rats per group, male; After overnight fasting, the animals were administered orally (PO) at a dose of 30 mg/kg with an administration volume of 10 mL/kg.
3 SD rats per group, male; After overnight fasting, the animals were administered intravenously (IV) at a dose of 1 mg/kg with an administration volume of 5 mL/kg.
0.2 mL of blood was collected from the jugular vein before administration and at 0.25 h, 0.5 h, 1.0 h, 2.0 h, 4.0 h, 6.0 h, 8.0 h, and 24.0 h after administration and placed in an EDTA-2K test tube, and the test tube was centrifuged at 6000 rpm for 6 min at 4°C to separate the plasma, which was stored at -20°C. the animals were fed 4 h after administration.
The final determination results obtained by applying the LCMS/MS method are shown in the table below: Table 8: Pharmacokinetic parameters of the compounds administered intravenously in rats

AsPC-1 = assay: Inhibition of proliferation of KRAS G12D mutant tumor cell line AsPC-1 (CellTiter-Glo); format: cell-based
Experimental: 1. Experimental objective: The inhibition activity of the example compounds on the proliferation of 5 KRAS G12D mutant cell lines SNU-1, HPAF-II, Panc0403, AsPC-1 and GP2D was determined. 2. Experimental instruments: • 2.1 Instruments: Microplate reader (BioTek Synergy H1); Pipette (Eppendorf & Rainin). • 2.2 Reagents: HPAF-II, PANC0403, AsPC-1 and GP2D were purchased from COBIOER BIOSCIENCES CO., LTD; SNU-1 was purchased from the cell bank of Chinese Academy of Sciences, Cell Titer-Glo was purchased from Promega, with a catalog number of G7573; RPMI 1640 was purchased from Gibco, with a catalog number of 22400089; DMEM was purchased from Gibco, with a catalog number of 11995065; FBS was purchased from Gibco, with a catalog number of 10091148; PBS was purchased from Gibco, with a catalog number of 10010023; trypsin was purchased from Gibco, with a catalog number of 25200056; cell culture plates were purchased from Corning Company, with a catalog number of 3610. 3. Experimental method: When SNU-1, HPAF-II, Panc0403, AsPC-1 or GP2D cells were cultured to the appropriate confluence, and the SNU-1, HPAF-II, Panc0403, AsPC-1 or GP2D cells were collected. The cells were adjusted to the appropriate cell density using complete culture medium, the cell suspension was plated onto a 96-well plate at 90 µL per well, and the plate was placed in the incubator at 37°C and 5% CO2 for adherent culture overnight. Solutions of the compound with different concentrations were formulated using DMSO and culture medium. A vehicle control was set up. The solutions of the compound were added to the 96-well plate at 10 µL per well, and the plate was placed in the incubator at 37°C and 5% CO2 for further culture for about 72 h. Then, CellTiter-Glo solution was added, and the obtained mixture was shaken and mixed evenly, incubated in the dark for 10 min, and read with a BioTek Synergy H1 microplate reader. 4. Experimental data processing method: The luminescence signal value was used to calculate the inhibition rate. Graphpad Prism software was used to fit the concentration and inhibition rate to a nonlinear regression curve, so as to obtain the IC50 value. 5. Experimental results: Table 2: Determination of the inhibition activity of the compounds on the proliferation of KRAS G12D mutant tumor cell line GP2D

[2] = Pharmacokinetic determination in mice (IV and PO, plasma, LCMS/MS); format: in vivo, Balb/c mice
Source text: • 1. Study objective: Balb/c mice were used as test animals to study the pharmacokinetic behavior of the compounds in mice (plasma) after oral administration. • 2. Test scheme • 2.1 Test drugs: The example compounds of the present invention, made in house; • 2.2 Test animals: Balb/c mice, male, purchased from Shanghai Jiesijie Experimental Animal Co., Ltd., animal production license number (SCXK (Shanghai) 2013-0006 N0.311620400001794). • 2.3 Drug formulation: Formulation of a drug for oral administration: 10% Captisol in 50 mM citrate buffer pH 5.0.
as §1, §2
The example compounds were weighed and added to a 4 mL glass bottle separately, 2.4 mL of the solution was added and the mixture was subjected to ultrasound treatment for 10 min to obtain a colorless clear solution with a concentration of 3 mg/mL.
as §3, §4
3 Balb/c mice, male; After overnight fasting, the animals were administered orally (PO) at a dose of 30 mg/kg with an administration volume of 10 mL/kg.
3 Balb/C mice, male; After overnight fasting, the animals were administered intravenously (IV) at a dose of 1 mg/kg with an administration volume of 5 mL/kg.
0.04 mL of blood was collected from the orbit before administration and at 0.25 h, 0.5 h, 1 h, 2 h, 4 h, 6 h, 8 h, and 24 h after administration and placed in an EDTA-2K test tube, and the test tube was centrifuged at 6000 rpm for 6 min at 4°C to separate the plasma, which was stored at -20°C; the animals were fed 4 h after administration.
The final determination results obtained by applying the LCMS/MS method are shown in the table below: Table 6: Pharmacokinetic parameters of the compounds administered intravenously in mice

[3] = Plasma stability test, rat plasma; settings: Rat plasma, 37°C
Source text: The purpose of this experiment was to detect the stability of the example compounds in plasma of mouse, rat, dog and human.
Liquid chromatography-mass spectrometer, centrifuge, vortexer, pipette, continuous dispenser, 96-well plate, 50% methanol aqueous solution, acetonitrile solution containing internal standard, blank matrix (plasma of rat, dog, or human), Propantheline (propantheline bromide), Mevinolin (lovastatin), and test compound.
After whole blood was collected from animals or humans, it was placed in a test tube containing an anticoagulant and centrifuged at 3500 rpm for 10 min to collect the upper pale yellow plasma.
The compound was weighed and the stock solution was formulated with DMSO and the working solution was formulated with 100 mM phosphate buffer.
2.36 mg of propantheline bromide was weighed and diluted with 1 mL of DMSO into a 10 mM stock solution; 10 µL of 10 mM stock solution was pipetted into 1 mL of 100 mM phosphate buffer to achieve a final concentration of 100 µM.
4.05 mg of lovastatin was weighed and diluted with 1 mL of DMSO into a 10 mM stock solution; 10 µL of 10 mM stock solution was pipetted into 1 mL of 100 mM phosphate buffer to achieve a final concentration of 100 µM.
• 1) In a 96-well plate, 285 µL of plasma and 15 µL of 10 µM compound (test compound) were added in sequence and incubated at 37°C. • 2) 40 µL was taken at 0, 15, 30, 60, 90, and 120 min (the sampling point can be fine-tuned) and 160 µL of acetonitrile stop solution containing internal standard was add. • 3) After centrifugation (3500 rpm, 10 min), 50 µL of supernatant was taken, and 50 µL of DDH2O added for dilution and then the obtained mixture was injected into LC-MS/MS.
• Instruments: Shimadzu LC-20 AD • Chromatographic column: Phenomenex Gemiu ® C18 (50*4.6 mm, 5 µm particle size); • mobile phase: A: Acetonitrile, B: 0.1% formic acid solution 0-8 min: 5% A→95% A, 2.0-2.1 min: 90%A→5% A; Flow rate: 0.8 mL/min; Run time: 5.0 min; Injection volume: 5 µL.
• Instrument: API4000 liquid chromatography-mass spectrometer, AB Company, USA; • the ion source was electrospray ionization source (ESI); • drying gas (N2) temperature was 500°C; • electrospray voltage was 5500V; • the detection method was positive ion detection; • the scanning method was selected reaction monitoring (MRM); • the scanning time was 0.1s.

[4] = rat, in vivo, PO, 30 mg/kg, overnight fasting, plasma
[5] = rat, in vivo, PO, 30 mg/kg, overnight fasting, plasma, read-out: Cmax
[6] = rat, in vivo, PO, 30 mg/kg, overnight fasting, plasma, read-out: Tmax
[7] = Homo sapiens, ASPC1, about 72 h
[8] = proliferation, about 72 h, CellTiter-Glo
[9] = Balb/c mice, intravenously (IV), 1 mg/kg, plasma
[10] = PO, 30 mg/kg, male Balb/c mice, overnight fasting, plasma
[11] = IV, 1 mg/kg, overnight fasting, plasma
[12] = PO, 30 mg/kg, overnight fasting, plasma

## [2H]C([2H])(Oc1nc2c3c(nc(-c4cc(O)cc5ccc(F)c(C#C)c45)c(F)c3n1)O[C@@H](C)[C@@H]1[C@@H]3CC[C@H](CN21)N3)C1(C([2H])([2H])N2CCC(=C(F)F)CC2)CC1 [Example 289]
GP2D; Homo sapiens, GP2d, 72 h
  IC50: 0.28 nM
[1]; [4]
  AUC(0-inf): 2110 ng·h/mL
  half-life: 6.3 h
[1]; [5]
  Cmax: 280 ng/mL
[1]; [6]
  Tmax: 4 h
AsPC-1; [7]
  IC50: 5.7 nM

## 4-((5S,5aS,6R,9S)-12-((1-((((R)-4-(difluoromethylene)-2-methylpiperidin-1-yl)methyl)cyclopropyl)methoxy)-1-fluoro-5-methyl-5a,6,7,8,9,10-hexahydro-5H-4-oxa-3,10a,11,13,14-pentaaza-6,9-methylnaphtho[1,8-ab]hept-2-yl)-5-ethynyl-6-fluoronaphthalen-2-ol [Example 91]
GP2D; [8]
  IC50: 0.28 nM
[2]; [9]
  AUCo-∞: 366 ng·h/mL
  C0: 662 ng/mL
  CL: 45.6 mL/min/kg
  T1/2: 9.3 h
[2]; PO 30 mg/kg vs IV 1 mg/kg, male Balb/c mice
  F: 16.6%
[2]; [10]
  AUC0-∞: 1818 ng·h/mL
  Cmax: 295 ng/mL
  T1/2: 5.7 h
  Tmax: 2.0 h
[1]; [11]
  AUCo-∞: 660 ng·h/mL
  C0: 995 ng/mL
  CL: 25.3 mL/min/kg
  T1/2: 11.9 h
[1]; PO 30 mg/kg vs IV 1 mg/kg
  F: 9.7%
[1]; [12]
  AUCo-∞: 1925 ng·h/mL
  Cmax: 251 ng/mL
  T1/2: 4.8 h
  Tmax: 6.0 h
AsPC-1; about 72 h
  IC50: 5.8 nM

## [2H]C([2H])(Oc1nc2c3c(nc(-c4cc(O)cc5ccc(F)c(C#C)c45)c(F)c3n1)O[C@@H](C)[C@@H]1[C@@H]3CC[C@H](CN21)N3)C1(C([2H])([2H])N2CCC(=C(F)F)C[C@H]2C)CC1 [Example 290]
GP2D; Homo sapiens, GP2d, 72 h
  IC50: 0.3 nM
AsPC-1; [7]
  IC50: 6.2 nM

## [2H]C([2H])([2H])C1Oc2nc(-c3cc(O)cc4ccc(F)c(C#C)c34)c(F)c3nc(OCC4(CN5CCC(=CF)CC5C)CC4)nc(c23)N2CC3CCC(N3)C12 (stereo not drawn) [Example 286]
GP2D; Homo sapiens, GP2d, 72 h
  IC50: 0.32 nM
[1]; [4]
  AUC(0-inf): 600 ng·h/mL
  half-life: 10.8 h
[1]; [5]
  Cmax: 50 ng/mL
[1]; [6]
  Tmax: 2 h
AsPC-1; [7]
  IC50: 7.8 nM

## C#Cc1c(F)ccc2cc(O)cc(-c3nc4c5c(nc(OCC6(CN7CCCC(=C(F)F)CC7)CC6)nc5c3F)N3C[C@H]5CC[C@H](N5)[C@H]3[C@H](C)O4)c12 [Example 132]
GP2D; Homo sapiens, GP2d, 72 h
  IC50: 0.24 nM
[1]; [4]
  AUC(0-inf): 2350 ng·h/mL
[1]; [5]
  Cmax: 246 ng/mL
[1]; [6]
  Tmax: 2 h
AsPC-1; [7]
  IC50: 4.9 nM

## C#Cc1c(F)ccc2cc(O)cc(-c3nc4c5c(nc(OCC6(CN7CCC(=C(F)F)C[C@@H]7C)CC6)nc5c3F)N3C[C@H]5CC[C@H](N5)[C@H]3[C@H](C)O4)c12 [Example 90]
GP2D; Homo sapiens, GP2d, 72 h
  IC50: 0.51 nM
AsPC-1; [7]
  IC50: 8.8 nM

## CC[C@H](C)C(=O)O[C@H]1C[C@@H](C)C=C2C=C[C@H](C)[C@H](CC[C@@H]3C[C@@H](O)CC(=O)O3)[C@H]21 [Lovastatin, lovastatin, reference compound]
[3]; 0 min
  Remaining rate (%) 0 min: 100.00%
[3]; 15 min
  Remaining rate (%) 15 min: 21.15%
[3]; 30 min
  Remaining rate (%) 30 min: 1.77%
[3]; 60 min
  Remaining rate (%) 60 min: 0.36%
[3]; 120 min
  Remaining rate (%) 120 min: 0.30%

## 4-((5S,5aS,6R,9S)-12-((1-((((R)-4-(difluoromethylene)-2-methylpiperidin-1-yl)methyl)cyclopropyl)methoxy)-1-fluoro-5-methyl-5a,6,7,8,9,10-hexahydro-5H-4-oxa-3,10a,11,13,14-pentaaza-6,9-methylnaphtho[1,8-ab]hept-2-yl)-5-ethynyl-6-fluoronaphthalen-2-ol [Example 89]
GP2D; [8]
  IC50: 0.9 nM
[2]; [10]
  AUC0-∞: 1513 ng·h/mL
  Cmax: 259 ng/mL
  T1/2: 7.7 h
  Tmax: 1.0 h
AsPC-1; about 72 h
  IC50: 8.9 nM

## C#Cc1c(F)ccc2cc(O)cc(-c3nc4c5c(nc(OCC6(CN7CCC(=C(F)F)C7)CC6)nc5c3F)N3C[C@H]5CC[C@H](N5)[C@H]3[C@H](C)O4)c12 [Example 130]
GP2D; Homo sapiens, GP2d, 72 h
  IC50: 0.33 nM
AsPC-1; [7]
  IC50: 4.2 nM
